Like-named read-outs stand apart in the source and are kept apart here.
Target: SARS-CoV-2 3CL protease (Severe acute respiratory syndrome coronavirus 2, UniProt P0DTD1)
Test: Inhibitory activity test against SARS-CoV-2 3CL proteases
Assay type: biochemical
[1] = read-out: IC50 (50% SARS-CoV-2 3CL protease inhibitory concentration)
[2] = IC50 (50% SARS-CoV-2 3CL protease inhibitory concentration)

Row | Compound | IC50 [1] [µM] | IC50 [2] [µM]
1 | COc1cc(-c2cc(CC(N)=O)ccc2Cl)cc2c1c(=O)n(-c1cncc(Cl)c1)c(=O)n2Cc1cc(F)c(F)c(F)c1 [Compound I-0206] | < 0.1 | 
2 | O=c1[nH]cccc1Cn1c(=O)c2c(n(Cc3cc(F)c(F)c(F)c3)c1=O)CCCC2 [Compound I-0325] | 0.45 | 
3 | O=C1Cc2cc(-c3cc(F)c4c(=O)n(-c5cncc(Cl)c5)c(=O)n(Cc5cc(F)c(F)c(F)c5)c4c3)c(Cl)cc2N1 [Compound I-0071] | < 0.1 | 
4 | COc1cc(-c2cc(CC(=O)N(C)C)ccc2Cl)cc2c1c(=O)n(-c1cncc(Cl)c1)c(=O)n2Cc1cc(Cl)ccc1C [Compound I-0205] | < 0.1 | 
5 | COc1cc(N2C[C@H]3C[C@@H]2CN3)cc2c1c(=O)n(Cc1ncn(C)n1)c(=O)n2Cc1cc(F)c(F)c(F)c1 [Compound I-0395] | 0.0022 | 
6 | COc1nc(N2[C@@H]3CC[C@H]2CNC3)cc2c1c(=O)n(-c1cncc(Cl)c1)c(=O)n2Cc1cc(F)c(F)c(F)c1 [Compound I-0541] |  | 0.0034
7 | Cn1cnc(Cn2c(=O)c3c4c(c(N5C[C@H]6C[C@@H]5CN6)cc3n(Cc3cc(F)c(F)c(F)c3)c2=O)CCO4)n1 [Compound I-0429] | < 0.1 | 
8 | Cn1cnc(Cn2c(=O)c3c(F)cc(-c4cc5cn[nH]c5cc4Cl)c(F)c3n(Cc3cc(F)c(F)c(F)c3)c2=O)n1 [Compound I-0006] | < 0.1 | 
9 | Cn1cnc(Cn2c(=O)c3ncc(-c4cc5c(cc4Cl)NC(=O)C5)cc3n(Cc3cc(F)c(F)c(Cl)c3)c2=O)n1 [Compound I-0121] | < 0.1 | 
10 | Cn1cnc(Cn2c(=O)c3c(F)cc(-c4nc5c(cc4Cl)NC(=O)C54CC4)cc3n(Cc3cc(F)c(F)c(F)c3)c2=O)n1 [Compound I-0008] | 0.021 | 
11 | COc1cc(-c2c(Cl)ccc3c(=O)n(C)ccc23)cc2c1c(=O)n(Cc1ncn(C)n1)c(=O)n2Cc1cc(F)c(F)c(F)c1 [Compound I-0268] | 0.0075 | 
12 | COc1nc(N2C[C@@H]3CC[C@H]2CN3)cc2c1c(=O)n(-c1cncc(Cl)c1)c(=O)n2Cc1cc(F)c(F)c(Cl)c1 [Compound I-0540] | < 0.1 | 
13 | Cn1cnc(Cn2c(=O)c3c(F)cc(-c4cc5c(cc4Cl)NC(=O)C5)cc3n(Cc3cc(F)c(F)c(Cl)c3)c2=O)n1 [Compound I-0267] | < 0.1 | 
14 | N#Cc1ccc(Cl)c(-c2cc3c(c4c2CCO4)c(=O)n(Cc2cc(F)c[nH]c2=O)c(=O)n3Cc2cc(F)c(F)c(F)c2)c1 [Compound I-0504] | < 0.1 | 
15 | COc1cc(-c2cc(S(C)(=O)=O)ccc2Cl)cc2c1c(=O)n(Cc1ncn(C)n1)c(=O)n2Cc1cc(F)c(F)c(F)c1 [Compound I-0122] | 0.027 | 
16 | COc1nc2cc(-c3cc(OC)c4c(=O)n(Cc5ncn(C)n5)c(=O)n(Cc5cc(F)c(F)c(F)c5)c4c3)c(Cl)cc2[nH]1 [Compound I-0501] | 0.0064 | 
17 | COc1cc(-c2cc(C#N)ccc2Cl)cc2c1c(=O)n(-c1cncc(C)c1)c(=O)n2Cc1cc(F)c(F)c(F)c1 [Compound I-0026] | 0.0065 | 
18 | O=c1[nH]cccc1Cn1c(=O)c2ccc(N3C[C@H]4C[C@@H]3CN4)cc2n(Cc2cc(F)c(F)c(F)c2)c1=O [Compound I-0140] | 0.0013 | 
19 | COc1cc(-c2cc(C#N)ccc2Cl)cc2c1c(=O)n(Cc1ncn(C)n1)c(=O)n2Cc1cc(Cl)c(F)cc1F [Compound I-0279] | < 0.1 | 
20 | Cn1cnc(Cn2c(=O)c3c(F)cc(-c4cc5c(cc4Cl)NC(=O)C5)cc3n(Cc3cc(F)c(F)c(F)c3)c2=O)n1 [Compound I-0270] | < 0.1 | 
21 | Cc1cncc(-n2c(=O)c3c(Cl)cc(-c4cc(C#N)ccc4Cl)cc3n(Cc3cc(F)c(F)c(F)c3)c2=O)c1 [Compound I-0012] | < 0.1 | 
22 | Cn1cnc(Cn2c(=O)c3ccc(N4C[C@H]5C[C@@H]4CN5)cc3n(Cc3cc(F)c(F)c(F)c3)c2=O)n1 [Compound I-0393] | < 0.1 | 

Row | Compound | IC50 [1] [µM] | IC50 [2] [µM]
23 | Cn1cnc(Cn2c(=O)c3c(=O)n(C)c(-c4cc(C#N)ccc4Cl)cc3n(Cc3cc(F)c(F)c(F)c3)c2=O)n1 [Compound I-0169] | 0.0027 | 
24 | COc1cc(-c2cc(C(=O)NCCNCCO)ccc2Cl)cc2c1c(=O)n(Cc1ncn(C)n1)c(=O)n2Cc1cc(F)c(F)c(F)c1 [Compound I-0216] | < 0.1 | 
25 | N#Cc1ccc(Cl)c(-c2cc3c(c4c2CCO4)c(=O)n(Cc2ncccn2)c(=O)n3Cc2cc(F)c(F)c(F)c2)c1 [Compound I-0442] | < 0.1 | 
26 | Cc1cc2c(=O)n(Cc3ncn(C)n3)c(=O)n(Cc3cc(F)c(F)c(F)c3)c2cc1-c1cc2c(cc1Cl)NC(=O)C2 [Compound I-0248] | 0.0073 | 
27 | Cn1cnc(Cn2c(=O)c3c(cc(-c4cc(C#N)ccc4Cl)n4cnnc34)n(Cc3cc(F)c(F)c(F)c3)c2=O)n1 [Compound I-0644] | < 0.1 | 
28 | COc1nc(-c2cc(C#N)ccc2Cl)cc2c1c(=O)n(-c1cncc(Cl)c1)c(=O)n2Cc1cc(F)c(F)c(F)c1 [Compound I-0178] | < 0.1 | 
29 | COc1cc(-c2cc(C(C)(C)O)ccc2Cl)cc2c1c(=O)n(-c1cncc(C)c1)c(=O)n2Cc1cc(F)c(F)c(F)c1 [Compound I-0069] | 0.006 | 
30 | Cn1cnc(Cn2c(=O)c3c(Cl)cc(-c4cc(C#N)ccc4Cl)cc3n(Cc3cc(F)c(F)c(Cl)c3)c2=O)n1 [Compound I-0175] | < 0.1 | 
31 | COc1cc(-c2cc(C#N)ccc2Cl)cc2c1c(=O)n(Cc1ncn(C)n1)c(=O)n2Cc1cc(F)c(F)c(Cl)c1 [Compound I-0271] | < 0.1 | 
32 | CNC(=O)Cn1c(=O)c2c3c(c(-c4cc(C#N)ccc4Cl)cc2n(Cc2cc(F)c(F)c(F)c2)c1=O)CCO3 [Compound I-0443] | < 0.1 | 
33 | COc1nc(N2CC[C@H](F)C2)cc2c1c(=O)n(Cc1ncn(C)n1)c(=O)n2Cc1cc(F)c(F)c(F)c1 [Compound I-0446] |  | < 0.1
34 | COc1cc(-c2c(Cl)ccc3ncccc23)cc2c1c(=O)n(Cc1ncn(C)n1)c(=O)n2Cc1cc(F)c(F)c(F)c1 [Compound I-0124] | < 0.1 | 
35 | Cn1cnc(Cn2c(=O)c3c(=O)[nH]c(-c4cc(C#N)ccc4Cl)cc3n(Cc3cc(F)c(F)c(Cl)c3)c2=O)n1 [Compound I-0172] | < 0.1 | 
36 | COc1cc(-c2cc3cn[nH]c3cc2Cl)cc2c1c(=O)n(Cc1ncn(C)n1)c(=O)n2Cc1cc(Cl)c(F)cc1F [Compound I-0272] | < 0.1 | 
37 | COc1nc(N2CC[C@@H](C(N)=O)C2)cc2c1c(=O)n(-c1cncc(Cl)c1)c(=O)n2Cc1cc(F)c(F)c(F)c1 [Compound I-0511] | < 0.1 | 
38 | COc1cc(-c2cc(C(=O)NCCO)ccc2Cl)cc2c1c(=O)n(Cc1ncn(C)n1)c(=O)n2Cc1cc(F)c(F)c(F)c1 [Compound I-0214] | < 0.1 | 
39 | COc1cc(-c2nc3[nH]c(=O)[nH]c3cc2Cl)cc2c1c(=O)n(Cc1ncn(C)n1)c(=O)n2Cc1cc(F)c(F)c(F)c1 [Compound I-0001] | 0.0053 | 
40 | COc1cc(-c2cc(S(C)(=N)=O)ccc2Cl)cc2c1c(=O)n(Cc1ncn(C)n1)c(=O)n2Cc1cc(F)c(F)c(F)c1 (centres unmarked) [Compound I-0207] | 0.023 | 
41 | CC(C)Nc1cc2c(c(=O)n(Cc3ncn(C)n3)c(=O)n2Cc2cc(F)c(F)c(F)c2)c2ncn(C)c12 [Compound I-0553] | 0.1 to 1 | 
42 | COc1cc(-c2cc(CC(N)=O)ccc2Cl)cc2c1c(=O)n(-c1cncc(Cl)c1)c(=O)n2Cc1cc(Cl)ccc1C [Compound I-0191] | < 0.1 | 
43 | CC1COc2c1c(N1CC[C@@H](O)C1)cc1c2c(=O)n(Cc2ncn(C)n2)c(=O)n1Cc1cc(F)c(F)c(F)c1 (some centres unmarked) [Compound I-0440] | 0.01 | 
44 | COc1ccc(Cl)c(-c2cc(OC)c3c(=O)n(Cc4ncn(C)n4)c(=O)n(Cc4cc(F)c(F)c(F)c4)c3c2)c1 [Compound I-0523] | 0.032 | 

Source: patent US20240400560A1, “BICYCLIC HETEROCYCLIC DERIVATIVE HAVING VIRAL GROWTH INHIBITORY ACTIVITY AND PHARMACEUTICAL COMPOSITION CONTAINING SAME” (Shionogi & Co., Ltd., priority 2021, published 2024)
